The subject of the experiment is HL-60 (TB) leukemia. In words: Cytotoxicity, HL-60(TB) leukemia. To be noted: Hydrochloride.

Several values for one entry are separate records, joined by “and”; a condition that tells them apart may be missing. Identical values can stand only once.

`COc1cc(CNc2ccc(C)cc2)cc(OC)c1OC.Cl` [110a, 4-Methyl-N-(3,4,5-trimethoxybenzyl)aniline Hydrochloride]: the “Log10 GI50, HL-60 (TB)” value is < -7.00 and -7.05.

For the origin of these results see patent US5430062A, “Stilbene derivatives as anticancer agents” (priority 1993, dated 1995).
